This passage reports IC50 results from BindingDB's records for doi:10.1016/j.bmcl.2014.09.001 (University of Pittsburgh, 2014).

Where only a bound is given, the exact number is not on record here.

The target in assay [1] is T1, Signal transducer and activator of transcription 1-alpha/beta (Homo sapiens, UniProt P42224).
T1 sequence (P42224 whole entry): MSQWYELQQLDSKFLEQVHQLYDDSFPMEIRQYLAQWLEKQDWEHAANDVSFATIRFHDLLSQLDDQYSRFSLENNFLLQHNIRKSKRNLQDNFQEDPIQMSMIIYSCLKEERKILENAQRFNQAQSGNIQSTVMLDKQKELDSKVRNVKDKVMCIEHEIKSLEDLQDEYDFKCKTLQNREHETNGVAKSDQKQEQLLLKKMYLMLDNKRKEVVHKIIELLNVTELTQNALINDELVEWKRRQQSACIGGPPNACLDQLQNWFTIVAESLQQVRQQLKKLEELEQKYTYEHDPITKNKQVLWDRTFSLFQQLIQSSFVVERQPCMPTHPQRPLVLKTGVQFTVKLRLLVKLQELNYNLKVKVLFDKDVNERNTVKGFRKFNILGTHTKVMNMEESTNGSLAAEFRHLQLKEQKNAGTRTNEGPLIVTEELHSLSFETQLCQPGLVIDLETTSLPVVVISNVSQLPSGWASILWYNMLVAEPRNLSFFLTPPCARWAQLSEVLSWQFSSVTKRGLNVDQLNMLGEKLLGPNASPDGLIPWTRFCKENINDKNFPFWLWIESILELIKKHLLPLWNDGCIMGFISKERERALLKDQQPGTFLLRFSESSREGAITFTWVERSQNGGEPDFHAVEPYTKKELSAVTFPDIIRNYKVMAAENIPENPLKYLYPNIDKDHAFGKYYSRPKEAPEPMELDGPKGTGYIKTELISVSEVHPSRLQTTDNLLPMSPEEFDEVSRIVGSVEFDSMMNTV
Description: Inhibition of IFNgamma-induced STAT1 phosphorylation in human Cal33 cells by Western blot analysis. (In general: A western blot detects proteins with antibodies after separation by electrophoresis.)

Assay [2] can be described thus: Inhibition of IL-6-induced STAT3 phosphorylation in human Cal33 cells assessed as nuclear translocation by Western blot analysis.

By IC50 is commonly meant the concentration that gives 50% inhibition. For the molecule `COc1ccc2c(C)nc(Nc3nc(C)cc(O)n3)nc2c1`, in assay [1], the IC50 was greater than 50 µM. On to `Cc1nc(NCc2ccccc2)nc2ccccc12`, for which the IC50 in assay [2] and in assay [1] was greater than 30 µM each time. On to `Cc1nc(NCCc2c[nH]c3ccccc23)nc2ccccc12`, for which the half-inhibitory concentration (IC50) in assay [2] and in assay [1] was greater than 30 µM throughout. In assay [1], `CC1=CC(C)(C)N=C(Nc2nc(C)c3cc(C)ccc3n2)N1` came in with an IC50 greater than 50 µM. Still for that read-out and setting: the same measure for `Cc1nc(Nc2ccccc2)nc2ccccc12`: greater than 30 µM; for `CCOc1ccc2nc(NC3=NC(C)=CC(C)(C)N3)nc(C)c2c1`: greater than 50 µM. Regarding `Cc1cc2nc(Nc3nc(=O)c(C)c(C)[nH]3)nc(C)c2cc1C`, the IC50 in assay [2] is 10.4 µM; in assay [1], greater than 50 µM. The like results for `Cc1cc(=O)nc(Nc2nc(C)c3cc4c(cc3n2)OCO4)[nH]1` were, in that order, greater than 50 µM and greater than 50 µM. Consider `Cc1ccc2c(C)nc(Nc3nc(=O)c(C)c(C)[nH]3)nc2c1`, for which the IC50 in assay [1] was determined as 35.2 µM. The molecule `Cc1cc(=O)nc(Nc2nc(C)c3cc(C)c(C)cc3n2)[nH]1` showed an IC50 in assay [1] greater than 50 µM.

The molecule `COc1ccc2nc(Nc3nc(=O)c(Cc4ccccc4)c(C)[nH]3)nc(C)c2c1` returned an IC50 in assay [1] of 50 µM. On to `Cc1ccc2c(C)nc(Nc3nc(=O)cc(C)[nH]3)nc2c1`, for which the 50% inhibitory concentration (IC50) in assay [1] stood at 39.7 µM.

For `Cc1nc(NCCN2CCOCC2)nc2ccccc12`, the IC50 in assay [2] and in assay [1] was greater than 30 µM in each case. For `Cc1nc(NCc2ccc3c(c2)OCO3)nc2ccccc12`, the IC50 in assay [2] and in assay [1] was greater than 30 µM in each case. Consider `COc1ccc2nc(Nc3nc(=O)cc(C)[nH]3)nc(C)c2c1`, for which the results for the concentration for half-maximal inhibition (IC50) in assay [2] and in assay [1] were 34.9 µM and greater than 50 µM, respectively. In the same order, the values of `Cc1[nH]c(Nc2nc(C)c3cc4c(cc3n2)OCO4)nc(=O)c1Cc1ccccc1` are greater than 50 µM and greater than 50 µM. In the same order, the values of `Cc1[nH]c(Nc2nc(C)c3cc4c(cc3n2)OCO4)nc(=O)c1C` are greater than 50 µM and greater than 50 µM.

Take `Cc1nc(Nc2nc(=O)cc(-c3ccccc3)[nH]2)nc2cc3c(cc12)OCO3`: the IC50 in assay [2] was 13 µM; in assay [1] it was greater than 50 µM. As to `C=CCc1c(C)[nH]c(Nc2nc(C)c3cc(C)cc(C)c3n2)nc1=O`, the IC50 in assay [1] was greater than 50 µM. In turn, `Cc1cc(C)c2nc(Nc3nc(=O)cc(-c4ccccc4)[nH]3)nc(C)c2c1` yielded an IC50 in assay [1] greater than 50 µM.

Molecule `Cc1nc(NC2CCCCC2)nc2ccccc12` registered an IC50 in assay [1] greater than 30 µM. Same read-out and setting: the same measure for `Cc1nc(Nc2ccccn2)nc2ccccc12`: greater than 30 µM.

As for `Cc1ccc(CNc2nc(C)c3ccccc3n2)o1`, in assay [1], the IC50 is greater than 30 µM.

In turn, `Cc1nc(NCc2cccc3ccccc23)nc2ccccc12` registered an IC50 in assay [1] greater than 30 µM.

Take `Cc1cc(C)c2nc(Nc3nc(C)c(C)c(O)n3)nc(C)c2c1`: the figures for the IC50 in assay [2] and in assay [1] were 6.4 µM and greater than 50 µM, respectively. Molecule `CCOc1ccc2nc(Nc3nc(=O)cc(-c4ccccc4)[nH]3)nc(C)c2c1` had a concentration for half-maximal inhibition (IC50) in assay [1] greater than 50 µM. `CCOc1ccc2nc(Nc3nc(=O)cc(C)[nH]3)nc(C)c2c1` came in with an IC50 in assay [1] greater than 50 µM.

For the molecule `CCOc1ccc2nc(Nc3nc(=O)c(C)c(C)[nH]3)nc(C)c2c1`, in assay [1], the IC50 is greater than 50 µM.

For the molecule `CCOc1ccc2c(C)nc(NC3=NC(C)=CC(C)(C)N3)nc2c1` [DNDI1417388], the half-maximal inhibitory concentration (IC50) in assay [1] was greater than 50 µM. With `CC1=CC(C)(C)N=C(Nc2nc(C)c3cc(C)cc(C)c3n2)N1` [US9211296, Table 7, Compd: 9], in assay [1], 5.9 µM corresponded to half-maximal inhibition (IC50).
